Results taken from US4875922A, “Pyrimidine derivatives” (Imperial Chemical Industries PLC, priority 1986, dated 1989).

How the values were obtained:
Apples = experiment: Intermediate Retardant Test, apples, foliar spray compared with root drench; format: in vivo, Apples (Red Delicious); conditions: 672 h, approximately 28 days, Table IX, read-out: Percentage Reduction in Height of Apples (Compared to formulation blank); for percent reduction in plant height at 2000 ppm: 2000 ppm (Foliar); for percent reduction in plant height at 2000 µg/mL: soil, 2000 pmm (Root), root drench
Text: (§1) Three species are involved in this test RICE, SPRING-BARLEY and APPLES. The variety and growth stages at spray are outlined in Table V. Compounds were applied at 500 ppm and 2000 ppm respectively (0.5 kg and 2 kg/ha^-1 at a field volume of 1000 l/ha^-1) as an overall spray except in the case of certain tests on APPLES. This gives a foliar and root component in the test, i.e., this test will detect the activity of both root and foliar acting compounds. The intermediate retardant test on APPLES of which the results are given in Table IX was different, in that a foliar (only) spray at 2000 ppm was compared with a root drench, also at 2000 ppm. The rice was grown in 4" `paddy` pots, i.e., the roots and bottom of the stems are immersed in water under conditions corresponding to those in paddy fields. Spring barley and apples were grown in 4" pots. The plants were assessed for height to top-most ligule at approximately 28 days after treatment for spring barley and rice and for height to apex at approximately 28 days after the treatment for apples. In each case the result for the 500 ppm and 2000 ppm test for each compound is compared to the height of the formulation blank in that test, presented as a percentage reduction in height compared to the formulation blank.
(§2) The prior art compound was compared with compounds of the present invention in side-by-side comparisons using the Intermediate Retardant Test described in Example 62, and the results are given in Tables X to XII where `A` is the prior art compound, 2-methyl-1-isopropyl-1-(pyrimidin-5-yl)-propan-1-ol).

Apple = experiment: Whole plant screen for plant growth regulator activity, apple (AP); format: in vivo, Apple (Red Delicious); conditions: 4000 ppm (4 kg/ha), visual score after 2-6 weeks
Method: (§3) Compounds 1 to 3 in Table 1 were tested for plant growth regulator activity against five species for various growth effects relevant to plant growth regulation.
(§4) The plant species used in this screen are presented in Table II with the leaf stage at which they were sprayed. Each chemical was applied at 4000 ppm (4 kg/ha in a 1000 l/ha field volume) using a tracksprayer and a SS8004E (Teejet) nozzle.
(§5) After spray the plants were grown in a glasshouse with 25° C. day/22° C. night temperatures and supplementary lighting was supplied when necessary (from mercury vapour lamps), to provide a 16 hour photoperiod. The exception to this were the temperate cereals, wheat and barley which were grown in 16° C. day/13° C. night temperatures.
(§6) After 2-6 weeks in the glasshouse, depending on the time of year, the plants were visually assessed for morphological characteristics. Formulation blanks were used as controls to assess the plants.
(§7) Additional compounds in Table I were tested for plant growth regulator activity using the method of Example 60 except that Tomato was included in the test as an additional species. Tomato, Ailsa Craig, was grown in a single 3 inch pot in peat and treated at the 2 to 21/2 leaves growth stage. The results were presented in Table IV in which Tomato is indicated by the code TO and the Key is otherwise as for Table III.

Spring Barley = experiment: Intermediate Retardant Test, spring barley; format: in vivo, Spring Barley (Atem/kym); conditions: Hordeum vulgare, 672 h, overall spray, approximately 28 days, Table VII, read-out: Percentage Reduction in Height of Spring Barley (Compared to formulation blank)
Text: as §1, §2

Barley = experiment: Whole plant screen for plant growth regulator activity, barley (BR); format: in vivo, Barley (Atem); conditions: BR, 4000 ppm (4 kg/ha), visual score after 2-6 weeks; for T = Tillering or side shooting: * = decrease in tillering
Method: as §3, §4, §5, §6, §7

Rice [1] = experiment: Whole plant screen for plant growth regulator activity, rice (RC); format: in vivo, Rice (Ishikari); conditions: 4000 ppm (4 kg/ha), visual score after 2-6 weeks; for T = Tillering or side shooting: * = decrease in tillering
Method: as §3, §4, §5, §6, §7

Tomato = experiment: Whole plant screen for plant growth regulator activity, tomato (TO); format: in vivo, Tomato (Ailsa Craig); conditions: 4000 ppm (4 kg/ha), visual score after 2-6 weeks
Method: as §4, §5, §6, §7
An astrisk (*) after a score under "T" (tillering) indicated a decrease in tillering.

Wheat = experiment: Whole plant screen for plant growth regulator activity, wheat (WW); format: in vivo, Wheat (Timmo); conditions: WW, 4000 ppm (4 kg/ha), visual score after 2-6 weeks; for T = Tillering or side shooting: * = decrease in tillering
Method: as §3, §4, §5, §6, §7

Rice [2] = experiment: Intermediate Retardant Test, rice; format: in vivo, Rice (Ishikari); conditions: Oryza sativa, 672 h, overall spray, approximately 28 days, Table VI, read-out: Percentage Reduction in Height of Rice (Compared to formulation blank)
Text: as §1, §2

Maize = experiment: Whole plant screen for plant growth regulator activity, maize (MZ); format: in vivo, Maize (Earliking); conditions: 4000 ppm (4 kg/ha), visual score after 2-6 weeks
Method: as §3, §4, §5
After 2-6 weeks in the glasshouse, depending on the time of year, the plants were visually assessed for morphological characteristics. Formulation blanks were used as controls to assess the plants. […]

SMILES | percent reduction in plant height at 2000 ppm (Apples) [%] | percent reduction in plant height at 2000 µg/mL (Apples) [%] | G = Greening effect (Apple) | I = Interligular or internodal length reduction (Apple) | R = Retardation (Apple) | percent reduction in plant height at 500 ppm (Spring Barley) [%] | percent reduction in plant height at 2000 ppm (Spring Barley) [%] | G = Greening effect (Barley) | I = Interligular or internodal length reduction (Barley) | R = Retardation (Barley) | T = Tillering or side shooting (Barley) | I = Interligular or internodal length reduction (Rice [1]) | R = Retardation (Rice [1]) | G = Greening effect (Tomato) | I = Interligular or internodal length reduction (Tomato) | I = Interligular or internodal length reduction (Wheat) | R = Retardation (Wheat) | T = Tillering or side shooting (Wheat) | Percent reduction in rice height vs formulation blank at 500 ppm (Rice [2]) [%] | Percent reduction in rice height vs formulation blank at 2000 ppm (Rice [2]) [%] | further results
CC(C)C#CC(O)(c1cncnc1)C(C)C (stereo not drawn) [Compound 9, 2-Methyl-1-(3-methylbut-1-yne)-1-(pyrimidin-5-yl)propan-1-ol] | 0 | 63 | 1 (10-30%) | 3 (61-100%) | 3 (61-100%) | 20 | 49 | 2 (31-60%) | 3 (61-100%) | 2 (31-60%) | 2 (31-60%) | 1 (10-30%) | 1 (10-30%) | 1 (10-30%) | 1 (10-30%) | 3 (61-100%) | 2 (31-60%) | 2 (31-60%) | 11 | 18 | A = Apical damage (Rice [1]): 1 (10-30%); G = Greening effect (Rice [1]): 1 (10-30%); R = Retardation (Tomato): 1 (10-30%); G = Greening effect (Wheat): 2 (31-60%)
CCC(C)CCC(O)(c1cncnc1)C(C)C (stereo not drawn) [Compound 6, 2-Methyl-1-(3-methylpentyl)-1-(pyrimidin-5-yl)propan-1-ol] | 18.8 | 72.1 |  |  |  | 22 | 57 | 1 (10-30%) | 3 (61-100%) | 2 (31-60%) |  | 2 (31-60%) | 2 (31-60%) | 2 (31-60%) | 2 (31-60%) | 3 (61-100%) | 3 (61-100%) | 1 (10-30%) | 26 | 50 | G = Greening effect (Maize): 1 (10-30%); I = Interligular or internodal length reduction (Maize): 2 (31-60%); R = Retardation (Maize): 2 (31-60%); R = Retardation (Tomato): 2 (31-60%)
CC(C)CCCC(O)(c1cncnc1)C(C)(C)C (stereo not drawn) [Compound 17, 2,2-Dimethyl-1-(4-methylpentyl)-1-(pyrimidin-5-yl)-propan-1-ol] | 17 | 66 | 1 (10-30%) | 3 (61-100%) | 3 (61-100%) | 2 | 28 | 2 (31-60%) | 3 (61-100%) | 2 (31-60%) | 2 (31-60%) | 2 (31-60%) | 2 (31-60%) | 1 (10-30%) | 1 (10-30%) | 3 (61-100%) | 2 (31-60%) | 2 (31-60%) | 7 | 10 | G = Greening effect (Rice [1]): 1 (10-30%); T = Tillering or side shooting (Rice [1]): 1 (10-30%); R = Retardation (Tomato): 1 (10-30%); G = Greening effect (Wheat): 2 (31-60%)
CC(C)CCC#CC(O)(c1cncnc1)C(C)C (stereo not drawn) [Compound 12, 2-Methyl-1-(5-methylhex-1-yne)-1-(pyrimidin-5-yl)-propan-1-ol] | 2 | 58 | 1 (10-30%) | 3 (61-100%) | 2 (31-60%) | 3 | 19 | 2 (31-60%) | 3 (61-100%) | 2 (31-60%) | 3 (61-100%) | 2 (31-60%) | 2 (31-60%) | 1 (10-30%) |  | 2 (31-60%) | 2 (31-60%) | 1 (10-30%) | 5 | 8 | G = Greening effect (Rice [1]): 1 (10-30%); T = Tillering or side shooting (Rice [1]): 1 (10-30%); G = Greening effect (Wheat): 1 (10-30%)
CC(C)C(O)(C#CCCCCl)c1cncnc1 (stereo not drawn) [Compound 8, 2-Methyl-1-(5-chloropen-1-yne)-1-(pyrimidin-5-yl)-propan-1-ol] | 6 | 49.3 | 2 (31-60%) | 3 (61-100%) | 3 (61-100%) | 31 | 63 | 2 (31-60%) | 2 (31-60%) | 3 (61-100%) | 1 (10-30%) |  |  | 2 (31-60%) | 3 (61-100%) | 3 (61-100%) | 3 (61-100%) | 3 (61-100%) | 43 | 54 | G = Greening effect (Maize): 1 (10-30%); I = Interligular or internodal length reduction (Maize): 3 (61-100%); R = Retardation (Maize): 3 (61-100%); T = Tillering or side shooting (Maize; * = decrease in tillering): 1 (10-30%); R = Retardation (Tomato): 3 (61-100%); G = Greening effect (Wheat): 2 (31-60%)
